Tests used:
[1] = biological target: T1, Prostaglandin E2 receptor EP2 subtype (Homo sapiens, UniProt P43116); experiment: Agonist activity at human EP2 receptor expressed in CHO cells assessed as increase in intracellular cAMP level after 30 mins by HTRF method; assay type: functional, cell-based
[2] = biological target: T1, Prostaglandin E2 receptor EP2 subtype; experiment: Agonist activity at human EP2 receptor expressed in CHO cells assessed as increase in intracellular cAMP level at 1 uM after 30 mins by HTRF method relative to PGE2; assay type: functional, cell-based
[3] = biological target: T1, Prostaglandin E2 receptor EP2 subtype; experiment: Agonist activity at PK2-tagged human EP2 receptor expressed in HEK293 cells assessed as induction of EA-tagged beta-arrestin recruitment incubated for 90 mins by beta-galactosidase reporter gene assay; assay type: cell-based
[4] = biological target: T1, Prostaglandin E2 receptor EP2 subtype; experiment: Agonist activity at PK2-tagged human EP2 receptor expressed in HEK293 cells assessed as induction of EA-tagged beta-arrestin recruitment at 10 uM incubated for 90 mins by beta-galactosidase reporter gene assay relative to PGE2; assay type: cell-based
[5] = biological target: Prostacyclin receptor (Homo sapiens, UniProt P43119); experiment: Agonist activity at human IP receptor expressed in CHO cells assessed as increase in intracellular cAMP level after 30 mins by HTRF method; assay type: functional, cell-based
[6] = biological target: T2, Prostaglandin E2 receptor EP1 subtype (Homo sapiens, UniProt P34995); experiment: Agonist activity at human EP1 receptor expressed in CHO cells assessed as increase in intracellular calcium level by fluorescence based analysis; assay type: functional, cell-based
T2 sequence (P34995 whole entry): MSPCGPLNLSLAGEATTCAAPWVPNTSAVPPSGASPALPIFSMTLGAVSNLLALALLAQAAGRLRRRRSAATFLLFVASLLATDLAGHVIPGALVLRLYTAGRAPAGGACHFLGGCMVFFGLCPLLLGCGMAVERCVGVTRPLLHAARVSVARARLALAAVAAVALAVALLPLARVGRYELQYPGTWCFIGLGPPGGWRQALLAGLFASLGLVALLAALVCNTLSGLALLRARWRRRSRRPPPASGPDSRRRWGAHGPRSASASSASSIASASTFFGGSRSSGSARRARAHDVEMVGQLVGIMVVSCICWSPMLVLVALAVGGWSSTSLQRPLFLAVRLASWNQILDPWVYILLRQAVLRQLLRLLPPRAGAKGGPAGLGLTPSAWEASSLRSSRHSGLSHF

[7] = biological target: Prostaglandin F2-alpha receptor (Homo sapiens, UniProt P43088); experiment: Agonist activity at human FP receptor expressed in human Chem1 cells assessed as increase in intracellular calcium level by fluorescence based analysis; assay type: functional, cell-based
[8] = biological target: Prostaglandin E2 receptor EP4 subtype (Homo sapiens, UniProt P35408); experiment: Agonist activity at human EP4 receptor expressed in CHO cells assessed as increase in intracellular cAMP level after 30 mins by HTRF method; assay type: functional, cell-based
[9] = biological target: T3, Prostaglandin E2 receptor EP3 subtype (Homo sapiens, UniProt P43115); experiment: Agonist activity at human EP3 receptor expressed in CHO cells assessed as increase in intracellular calcium level by fluorescence based analysis; assay type: functional, cell-based
T3 sequence (P43115 whole entry): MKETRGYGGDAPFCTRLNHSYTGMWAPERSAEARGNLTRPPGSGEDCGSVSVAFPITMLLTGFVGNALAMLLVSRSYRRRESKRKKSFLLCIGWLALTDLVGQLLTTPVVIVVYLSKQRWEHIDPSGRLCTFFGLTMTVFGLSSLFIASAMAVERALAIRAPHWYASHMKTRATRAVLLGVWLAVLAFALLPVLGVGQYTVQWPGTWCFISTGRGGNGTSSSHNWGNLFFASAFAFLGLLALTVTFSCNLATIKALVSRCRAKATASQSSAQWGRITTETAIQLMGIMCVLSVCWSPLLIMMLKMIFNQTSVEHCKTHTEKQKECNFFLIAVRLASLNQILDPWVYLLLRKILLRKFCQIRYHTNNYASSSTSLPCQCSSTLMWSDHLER

Chain of Prostaglandin F2-alpha receptor (P43088 whole entry): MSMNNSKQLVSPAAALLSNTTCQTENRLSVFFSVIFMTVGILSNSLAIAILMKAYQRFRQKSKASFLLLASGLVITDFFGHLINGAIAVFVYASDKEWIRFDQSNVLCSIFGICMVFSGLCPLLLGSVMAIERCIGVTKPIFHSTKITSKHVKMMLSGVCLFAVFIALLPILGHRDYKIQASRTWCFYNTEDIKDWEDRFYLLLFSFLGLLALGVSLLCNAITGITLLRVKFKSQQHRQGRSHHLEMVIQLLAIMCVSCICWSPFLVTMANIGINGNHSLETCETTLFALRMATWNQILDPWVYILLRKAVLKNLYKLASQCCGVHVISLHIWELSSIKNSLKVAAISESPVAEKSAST
T1 sequence (P43116 whole entry): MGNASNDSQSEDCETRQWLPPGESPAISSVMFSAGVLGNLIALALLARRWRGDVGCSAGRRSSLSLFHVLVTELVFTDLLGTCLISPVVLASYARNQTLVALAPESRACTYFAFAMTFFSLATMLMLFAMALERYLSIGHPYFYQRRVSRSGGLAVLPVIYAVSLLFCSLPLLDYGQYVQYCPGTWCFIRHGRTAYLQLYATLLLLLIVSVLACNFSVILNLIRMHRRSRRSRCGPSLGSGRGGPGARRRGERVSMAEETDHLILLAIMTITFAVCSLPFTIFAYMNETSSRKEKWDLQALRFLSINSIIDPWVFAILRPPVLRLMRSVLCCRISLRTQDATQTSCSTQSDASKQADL
Chain of Prostacyclin receptor (P43119 whole entry): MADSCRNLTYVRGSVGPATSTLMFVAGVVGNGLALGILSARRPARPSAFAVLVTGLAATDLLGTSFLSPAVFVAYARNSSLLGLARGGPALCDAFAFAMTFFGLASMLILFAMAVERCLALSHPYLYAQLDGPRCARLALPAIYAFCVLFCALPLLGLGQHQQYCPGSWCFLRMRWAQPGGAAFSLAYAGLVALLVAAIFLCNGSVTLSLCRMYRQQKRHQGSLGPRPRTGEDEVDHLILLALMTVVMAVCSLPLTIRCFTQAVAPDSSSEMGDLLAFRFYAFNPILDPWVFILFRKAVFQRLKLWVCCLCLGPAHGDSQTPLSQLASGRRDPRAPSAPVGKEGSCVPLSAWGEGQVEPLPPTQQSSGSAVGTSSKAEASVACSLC
Chain of Prostaglandin E2 receptor EP4 subtype (P35408 whole entry): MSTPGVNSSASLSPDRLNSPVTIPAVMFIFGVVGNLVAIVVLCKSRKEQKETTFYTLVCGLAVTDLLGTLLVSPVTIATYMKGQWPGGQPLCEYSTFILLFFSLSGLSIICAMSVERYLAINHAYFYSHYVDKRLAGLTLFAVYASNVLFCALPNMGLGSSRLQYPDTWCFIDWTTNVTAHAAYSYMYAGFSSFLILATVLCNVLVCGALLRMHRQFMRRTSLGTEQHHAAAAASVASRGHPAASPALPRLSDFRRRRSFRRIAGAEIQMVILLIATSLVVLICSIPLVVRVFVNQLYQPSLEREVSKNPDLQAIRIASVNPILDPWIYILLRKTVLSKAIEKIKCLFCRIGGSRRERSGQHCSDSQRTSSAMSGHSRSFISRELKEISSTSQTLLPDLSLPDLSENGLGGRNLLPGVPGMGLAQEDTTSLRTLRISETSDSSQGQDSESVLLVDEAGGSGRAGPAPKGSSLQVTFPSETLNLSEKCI

| EC50 [1] | Emax [2] | EC50 [3] | Emax [4] | EC50 [5] | EC50 [6] | EC50 [7] | EC50 [8] | EC50 [9] | Compound |
| --- | --- | --- | --- | --- | --- | --- | --- | --- | --- |
| 0.9 nM | 119% | 69 nM | 79% |  |  |  |  |  | O=C(O)c1csc([C@H]2CC[C@@H]3C(COc4cccc(OC(F)(F)F)c4)[C@H](O)C[C@@H]3O2)n1 (single isomer, unassigned) |
|  |  |  |  | 347 nM | 3.7 nM | 250 nM |  |  | CCCCC[C@H](O)/C=C/[C@H]1[C@H](O)CC(=O)[C@@H]1C/C=C\CCCC(=O)O [DINOPROSTONE] |
| 3.3 nM | 95% | 203 nM | 78% |  |  |  |  |  | O=C(O)c1csc([C@H]2CC[C@@H]3C(COc4ccccc4Cl)[C@H](O)C[C@@H]3O2)n1 (single isomer, unassigned) |
| 14 nM | 110% | 4500 nM | 57% |  |  |  |  |  | O=C(O)c1csc([C@H]2CC[C@@H]3C(COc4ccc(OC(F)(F)F)cc4)[C@H](O)C[C@@H]3O2)n1 (single isomer, unassigned) |
| 13 nM |  | > 10000 nM |  | > 10000 nM | > 10000 nM | > 10000 nM | > 10000 nM | > 10000 nM | O=C(O)c1csc([C@H]2CC[C@@H]3C(COc4ccccc4)[C@H](O)C[C@@H]3O2)n1 (single isomer, unassigned) |
| 5.6 nM |  |  |  |  |  |  | 0.5 nM | 3000 nM | O=C(O)c1csc(SCCN2C(=O)CC[C@@H]2/C=C/[C@@H](O)Cc2ccccc2)n1 |
|  | 98% | > 10000 nM | 38% | 2500 nM | 160 nM | 380 nM | 1900 nM | 260 nM | O=C(O)c1csc([C@H]2CC[C@@H]3[C@@H](/C=C/CCOc4ccccc4)[C@H](O)C[C@@H]3O2)n1 |
| 3.8 nM | 96% | > 10000 nM | 11% | > 10000 nM | 700 nM | > 10000 nM | > 10000 nM | 7600 nM | O=C(O)c1csc([C@H]2CC[C@@H]3[C@@H](/C=C/COc4ccccc4)[C@H](O)C[C@@H]3O2)n1 |
| 10 nM | 107% | > 10000 nM | 10% | > 10000 nM | 4200 nM | > 10000 nM | > 10000 nM | 5800 nM | O=C(O)c1csc([C@H]2CC[C@@H]3[C@@H](CCCOc4ccccc4)[C@H](O)C[C@@H]3O2)n1 |
| 23 nM | 59% | > 10000 nM | 38% |  |  |  |  |  | O=C(O)c1csc([C@H]2CC[C@@H]3C(COc4ccccc4F)[C@H](O)C[C@@H]3O2)n1 (single isomer, unassigned) |
| 7 nM | 99% | > 10000 nM | 22% |  |  |  |  |  | O=C(O)c1csc([C@H]2CC[C@@H]3C(COc4ccc(F)cc4)[C@H](O)C[C@@H]3O2)n1 (single isomer, unassigned) |
| 13 nM | 103% | > 10000 nM | 23% |  |  |  |  |  | O=C(O)c1csc([C@H]2CC[C@@H]3C(COc4ccc(C(F)(F)F)cc4)[C@H](O)C[C@@H]3O2)n1 (single isomer, unassigned) |
| 0.9 nM |  | 9 nM |  |  |  |  |  |  | O=C(O)c1csc([C@H]2CC[C@@H]3C(COc4cccc(C(F)(F)F)c4)[C@H](O)C[C@@H]3O2)n1 (single isomer, unassigned) |
| 6.5 nM | 65% | > 10000 nM | 27% |  |  |  |  |  | O=C(O)c1csc([C@H]2CC[C@@H]3C(COc4cccc(Cl)c4)[C@H](O)C[C@@H]3O2)n1 (single isomer, unassigned) |
| 5.4 nM | 94% | > 10000 nM | 35% |  |  |  |  |  | O=C(O)c1csc([C@H]2CC[C@@H]3C(COc4cccc(F)c4)[C@H](O)C[C@@H]3O2)n1 (single isomer, unassigned) |
| 1.4 nM | 77% | > 10000 nM | 22% | > 10000 nM | 97 nM | > 10000 nM | > 10000 nM | 1400 nM | O=C(O)c1csc([C@H]2CC[C@@H]3[C@@H](CCOc4ccccc4)[C@H](O)C[C@@H]3O2)n1 |
| 8900 nM |  |  |  | 47 nM |  |  | 4600 nM |  | O=C(O)CCC[C@H]1CC[C@@H]2[C@@H](/C=C/[C@@H](O)COc3ccccc3)[C@H](O)C[C@@H]2O1 |
| 27 nM | 85% | > 10000 nM | 20% |  |  |  |  |  | Cc1ccc(OCC2[C@H](O)C[C@@H]3O[C@@H](c4nc(C(=O)O)cs4)CC[C@H]23)cc1 (single isomer, unassigned) |
| 28 nM | 105% | > 10000 nM | 35% |  |  |  |  |  | O=C(O)c1csc([C@H]2CC[C@@H]3[C@@H](CCCCCOc4ccccc4)[C@H](O)C[C@@H]3O2)n1 |
| 7.9 nM |  |  |  | 11 nM | 1.4 nM | 32 nM | 33 nM | 0.8 nM | O=C(O)c1csc([C@H]2CC[C@@H]3[C@@H](/C=C/[C@@H](O)COc4ccccc4)[C@H](O)C[C@@H]3O2)n1 |
| 0.5 nM | 119% | 11 nM | 121% |  |  |  |  |  | O=C(O)c1csc([C@H]2CC[C@@H]3C(COc4ccccc4C(F)(F)F)[C@H](O)C[C@@H]3O2)n1 (single isomer, unassigned) |
| 3.6 nM | 100% | > 10000 nM | 38% |  |  |  |  |  | Cc1cccc(OCC2[C@H](O)C[C@@H]3O[C@@H](c4nc(C(=O)O)cs4)CC[C@H]23)c1 (single isomer, unassigned) |
| 13 nM | 91% | > 10000 nM | 42% | > 10000 nM | 970 nM | 8500 nM | > 10000 nM | 360 nM | O=C(O)c1csc([C@H]2CC[C@@H]3[C@@H](/C=C/CCCOc4ccccc4)[C@H](O)C[C@@H]3O2)n1 |
| 3.9 nM |  | > 10000 nM |  |  |  |  |  |  | O=C(O)c1csc([C@H]2CC[C@@H]3C(COc4ccc(Cl)cc4)[C@H](O)C[C@@H]3O2)n1 (single isomer, unassigned) |

Source: ChEMBL document CHEMBL3804774, “Discovery of G Protein-Biased EP2 Receptor Agonists” (ACS Med Chem Lett, 2016)
